Like-named read-outs stand apart in the source and are kept apart here.
Assays:
[1] = target: T1, Recombinant GST-TAG-MASTL (Homo sapiens, UniProt Q96GX5); assay: HTRF-based kinase assay (HTRF KinEASE assay kit); format: biochemical; conditions: for activity at 1 µM: compound 1 µM, read-out: MASTL activity (%) HTRF (1 µM); for IC50: HTRF
T1 construct: GST; purchased Thermo Fisher Scientific
T1 sequence (Q96GX5 1-879): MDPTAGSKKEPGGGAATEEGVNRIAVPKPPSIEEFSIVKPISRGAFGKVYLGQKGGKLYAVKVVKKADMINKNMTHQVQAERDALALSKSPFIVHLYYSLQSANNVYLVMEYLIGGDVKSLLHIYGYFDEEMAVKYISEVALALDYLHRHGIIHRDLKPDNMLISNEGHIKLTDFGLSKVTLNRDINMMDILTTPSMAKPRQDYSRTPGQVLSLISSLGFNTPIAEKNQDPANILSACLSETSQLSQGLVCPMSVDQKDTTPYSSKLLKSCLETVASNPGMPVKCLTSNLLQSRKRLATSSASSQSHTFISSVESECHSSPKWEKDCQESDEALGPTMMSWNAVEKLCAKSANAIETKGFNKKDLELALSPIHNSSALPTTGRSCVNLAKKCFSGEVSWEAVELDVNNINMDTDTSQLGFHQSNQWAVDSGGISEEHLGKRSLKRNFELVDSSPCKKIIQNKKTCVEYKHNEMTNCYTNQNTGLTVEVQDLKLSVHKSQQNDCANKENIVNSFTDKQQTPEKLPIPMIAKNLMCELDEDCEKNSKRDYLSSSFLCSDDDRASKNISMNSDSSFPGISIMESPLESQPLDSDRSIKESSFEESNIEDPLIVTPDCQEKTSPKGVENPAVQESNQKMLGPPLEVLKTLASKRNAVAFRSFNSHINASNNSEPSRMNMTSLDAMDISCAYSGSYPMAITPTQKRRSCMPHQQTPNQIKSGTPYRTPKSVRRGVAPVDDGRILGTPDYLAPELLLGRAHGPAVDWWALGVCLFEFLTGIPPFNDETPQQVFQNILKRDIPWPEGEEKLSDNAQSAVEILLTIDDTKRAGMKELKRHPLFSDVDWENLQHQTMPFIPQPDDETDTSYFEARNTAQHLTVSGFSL
From the text: Recombinant GST-TAG-MASTL (Thermo Fisher Scientific, MA, USA) was used for HTRF-based kinase assays. The HTRF KinEASE assay kit (CisBio, MA, USA) was used according to the manufacturer's instructions.

pENSA = pENSA level by immunofluorescence (described method: in vitro kinase analysis with GST-tag-MASTL and His-tag-ENSA); format: cell-based; conditions: for pENSA (%) Immunofluor ecense (1 µM): compound 1 µM
How it was run: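 In vitro kinase reaction using recombinant GST-tagged MASTL with His-tagged ENSA as substrate; phosphorylated ENSA (pENSA) serves as read-out of MASTL activity. Cell lines named: MCF7 breast cancer and MCF10A.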

in vitro = conditions: human, mcf10a cells
Description: (§1) MCF7 breast cancer cell lines and MCF10A normal breast cancer cell lines were treated with serial dilutions of the compounds of the present invention ranging from 1 µM to 15.63 nM for 72 hours. Cell viability was measured by the WST-8 assay (Cyto XTM cell viability assay kit; LPS solution, Daejeon, Korea) according to the manufacturer's instructions.

[2] = system: MCF7 breast cancer cell lines; assay: Cell viability analysis, WST-8 assay, MCF7; conditions: for viability at 1 µM: read-out: Cell viability (%) WST-8, MCF7 (1 µM), compound 1 µM, 72 hours; for viability at 1.25 µM: read-out: Cell viability (%) WST-8, MCF7, footnote a: concentration 1.25 µM, 72 hours
Description: as §1

[3] = read-out: IC50(nM) MASTL activity

FC(F)(F)c1cccc(C2=CCN(c3nc(Nc4cc(C5CC5)[nH]n4)c4ccccc4n3)CC2)c1 [compound 6g, M-(5-cyclopropyl-1G-pyrazol-3-yl)-2-(4-(3-(trifluoromethyl)phenyl)-3,6-dihydropyridin-1(2G)-yl)quinazolin-4-amine]
activity at 1 µM [1]: 41.4%
pENSA (%) Immunofluor ecense (1 µM) (pENSA): 113%
viability at 1 µM (in vitro): 104%
viability at 1 µM ([2]; Homo sapiens, MCF7, 72 h): 95%

Fc1cc(Br)ccc1Nc1nc(Nc2cc(C3CC3)[nH]n2)c2ccccc2n1 [compound 4c, M^2-(4-bromo-2-fluorophenyl)-M^4-(5-cyclopropyl-1G-pyrazol-3-yl)quinazoline-2,4-diamine]
activity at 1 µM [1]: 47.1%
pENSA (%) Immunofluor ecense (1 µM) (pENSA): 69%
IC50 (pENSA; read-out: IC50(nM) pENSA): 850 nM
viability at 1 µM (in vitro): 83.3%
viability at 1 µM ([2]; Homo sapiens, MCF7, 72 h): 50.8%

CC(C)CN1CC2CC1CN2c1nc(Nc2cc(C3CC3)[nH]n2)c2ccccc2n1 (stereo not shown) [compound 15f, M-(5-cyclopropyl-1G-pyrazol-3-yl)-2-(5-isobutyl-2,5-diazabicyclo[2.2.1]heptan-2-yl)quinazolin-4-amine]
activity at 1 µM [1]: 65.7%
pENSA (%) Immunofluor ecense (1 µM) (pENSA): 65.3%
viability at 1 µM (in vitro): 90.1%
viability at 1 µM ([2]; Homo sapiens, MCF7, 72 h): 71.7%

Brc1ccc(Nc2nc(Nc3cc(C4CC4)[nH]n3)c3ccccc3n2)cc1 [compound 4b, M^2-(4-bromophenyl)-M^4-(5-cyclopropyl-1G-pyrazol-3-yl)quinazoline-2,4-diamine]
IC50 ([1]; unit µM, read-out: IC50 MASTL activity): 1.4 µM
activity at 1 µM [1]: 43.2%
pENSA (%) Immunofluor ecense (1 µM) (pENSA): 82%
IC50 (pENSA; unit µM, read-out: IC50 pENSA): 1100 nM
viability at 1 µM (in vitro): 68.2%
viability at 1 µM ([2]; Homo sapiens, MCF7, 72 h): 47.7%

O=S(=O)(c1ccc(F)cc1F)N1CC2CCC1CN2c1nc(Nc2cc(C3CC3)[nH]n2)c2ccccc2n1 (stereo not shown) [compound 24c, M-(5-cyclopropyl-1G-pyrazol-3-yl)-2-(5-((2,4-difluorophenyl)sulfonyl)-2,5-diazabicyclo[2.2.2]octan-2-yl)quinazolin-4-amine]
activity at 1 µM [1]: 16.6%
pENSA (%) Immunofluor ecense (1 µM) (pENSA): 24.3%
viability at 1 µM (in vitro): 10.8%
viability at 1 µM ([2]; Homo sapiens, MCF7, 72 h): 68.3%

Fc1ccccc1C1=CCN(c2nc(Nc3cc(C4CC4)[nH]n3)c3ccccc3n2)CC1 [compound 6k, M-(5-cyclopropyl-1G-pyrazol-3-yl)-2-(4-(2-fluorophenyl)-3,6-dihydropyridin-1(2G)-yl)quinazolin-4-amine]
IC50 [1, 3]: 0.406 µM
activity at 1 µM [1]: 40.6%
pENSA (%) Immunofluor ecense (1 µM) (pENSA): 82%
viability at 1 µM (in vitro): 90.8%
viability at 1 µM ([2]; Homo sapiens, MCF7, 72 h): 91%

O=C(c1ccccc1)N1CC2CC1CN2c1nc(Nc2cn[nH]c2)c2ccccc2n1 (stereo not shown) [compound 28d, (5-(4-((1G-pyrazol-4-yl)amino)quinazolin-2-yl)-2,5-diazabicyclo[2.2.1]heptan-2-yl)(phenyl)methanone]
activity at 1 µM [1]: 119%
pENSA (%) Immunofluor ecense (1 µM) (pENSA): 66.9%
viability at 1 µM (in vitro): 49.7%
viability at 1 µM ([2]; Homo sapiens, MCF7, 72 h): 93.1%

CN(C)S(=O)(=O)c1ccc(Nc2nc(Nc3cc(C4CC4)[nH]n3)c3ccccc3n2)cc1 [compound 4j, 4-((4-((5-cyclopropyl-1G-pyrazol-3-yl)amino)quinazolin-2-yl)amino)-M,M-dimethylbenzenesulfonamide]
IC50 [1, 3]: 0.527 µM
activity at 1.25 µM ([1]; footnote a: concentration 1.25 µM, read-out: MASTL activity (%) HTRF): 27%
pENSA (%) Immunofluor ecense (1 µM) (pENSA): 5.2%
IC50 (pENSA; read-out: IC50(nM) pENSA): 420 nM
viability at 1.25 µM (in vitro): 21.6%
viability at 1.25 µM ([2]; Homo sapiens, MCF7, 72 h): 22.8%
IC50 ([2]; Homo sapiens, MCF7, 72 h, read-out: IC50(nM) Cell viability (MCF7)): 713 nM
selectivity for breast cancer cells over normal cells in the cell viability assay ([2]; MCF7 versus MCF10A): selectively inhibit only breast cancer cells

CC(C)(C)OC(=O)Nc1cccc(Nc2nc(Nc3ccc(CC#N)cc3)nc3ccccc23)c1 [compound 3m, sdqs-butyl (3-((2-((4-(cyanomethyl)phenyl)amino)quinazolin-4-yl)amino)phenyl)carbamate]
activity at 1 µM [1]: 117%
pENSA (%) Immunofluor ecense (1 µM) (pENSA): 85%
viability at 1 µM (in vitro): 91.7%
viability at 1 µM ([2]; Homo sapiens, MCF7, 72 h): 116%

C1=C(Cc2ccccc2)CCN(c2nc(Nc3cc(C4CC4)[nH]n3)c3ccccc3n2)C1 [compound 6h, 2-(4-benzyl-3,6-dihydropyridin-1(2G)-yl)-M-(5-cyclopropyl-1G-pyrazol-3-yl)quinazolin-4-amine]
IC50 [1, 3]: 0.995 µM
activity at 1 µM [1]: 46%
pENSA (%) Immunofluor ecense (1 µM) (pENSA): 93%
viability at 1 µM (in vitro): 59.8%
viability at 1 µM ([2]; Homo sapiens, MCF7, 72 h): 89.7%

c1ccc2c(Nc3cc(C4CC4)[nH]n3)nc(Nc3ccc(Cc4nnn[nH]4)cc3)nc2c1 [compound 4e, M^2-(4-((1G-tetrazol-5-yl)methyl)phenyl)-M^4-(5-cyclopropyl-1G-pyrazol-3-yl)quinazoline-2,4-diamine]
IC50 [1, 3]: 0.164 µM
activity at 10 µM ([1]; footnote b: concentration 10 µM, read-out: MASTL activity (%) HTRF): 15.1%
pENSA (%) Immunofluor ecense (1 µM) (pENSA): 90.7%
viability at 1.25 µM (in vitro): 110%
viability at 1.25 µM ([2]; Homo sapiens, MCF7, 72 h): 112%

Cc1ccc(S(=O)(=O)N2CC3CC2CN3c2nc(Nc3cc(C4CC4)[nH]n3)c3ccccc3n2)cc1F (stereo not shown) [compound 15w, M-(5-cyclopropyl-1G-pyrazol-3-yl)-2-(5-((3-fluoro-4-methylphenyl)sulfonyl)-2,5-diazabicyclo[2.2.1]heptan-2-yl)quinazolin-4-amine]
activity at 1 µM [1]: 64.1%
pENSA (%) Immunofluor ecense (1 µM) (pENSA): 86.2%
viability at 1 µM (in vitro): 107%
viability at 1 µM ([2]; Homo sapiens, MCF7, 72 h): 93.5%

CC(C)(C)OC(=O)N1CCN(c2nc(Nc3cc(C4CC4)[nH]n3)c3ccccc3n2)CC1 [compound 10, sdqs-butyl 4-(4-((5-cyclopropyl-1G-pyrazol-3-yl)amino)quinazolin-2-yl)piperazine-1-carboxylate]
IC50 [1, 3]: 0.569 µM
activity at 1 µM [1]: 24.1%
pENSA (%) Immunofluor ecense (1 µM) (pENSA): 50.3%
viability at 1 µM (in vitro): 60.7%
viability at 1 µM ([2]; Homo sapiens, MCF7, 72 h): 61.4%

O=C(Nc1ccccc1)N1CC2CC1CN2c1nc(Nc2cc(C3CC3)[nH]n2)c2ccccc2n1 (stereo not shown) [compound 15c, 5-(4-((5-cyclopropyl-1G-pyrazol-3-yl)amino)quinazolin-2-yl)-M-phenyl-2,5-diazabicyclo[2.2.1]heptane-2-carboxamide]
IC50 [1, 3]: 0.265 µM
activity at 1 µM [1]: 41.2%
pENSA (%) Immunofluor ecense (1 µM) (pENSA): 11.3%
IC50 (pENSA; read-out: IC50(nM) pENSA): 576 nM
viability at 1 µM (in vitro): 40%
viability at 1 µM ([2]; Homo sapiens, MCF7, 72 h): 93%

Cc1cc(Nc2nc(N3CC4CC3CN4CC(C)C)nc3ccccc23)n[nH]1 (stereo not shown) [compound 27e, 2-(5-isobutyl-2,5-diazabicyclo[2.2.1]heptan-2-yl)-M-(5-methyl-1G-pyrazol-3-yl)quinazolin-4-amine]
activity at 1 µM [1]: 67.4%
pENSA (%) Immunofluor ecense (1 µM) (pENSA): 90.1%
viability at 1 µM (in vitro): 74.8%
viability at 1 µM ([2]; Homo sapiens, MCF7, 72 h): 88.3%

O=C1Cc2cc(Nc3nc(Nc4cc(C5CC5)[nH]n4)c4ccccc4n3)ccc2N1 [compound 4di, 5-((4-((5-cyclopropyl-1G-pyrazol-3-yl)amino)quinazolin-2-yl)amino)indolin-2-one]
activity at 1 µM [1]: 38.8%
pENSA (%) Immunofluor ecense (1 µM) (pENSA): 51.1%
viability at 1 µM (in vitro): 12.1%
viability at 1 µM ([2]; Homo sapiens, MCF7, 72 h): 55.4%

O=S(=O)(c1cccc2cccnc12)N1CC2CC1CN2c1nc(Nc2cc(C3CC3)[nH]n2)c2ccccc2n1 (stereo not shown) [compound 15z, M-(5-cyclopropyl-1G-pyrazol-3-yl)-2-(5-(quinolin-8-ylsulfonyl)-2,5-diazabicyclo[2.2.1]heptan-2-yl)quinazolin-4-amine]
activity at 1 µM [1]: 105%
pENSA (%) Immunofluor ecense (1 µM) (pENSA): 102%
viability at 1 µM (in vitro): 111%
viability at 1 µM ([2]; Homo sapiens, MCF7, 72 h): 110%

FC(F)(F)c1ccc(C2=CCN(c3nc(Nc4cc(C5CC5)[nH]n4)c4ccccc4n3)CC2)cc1 [compound 6f, M-(5-cyclopropyl-1G-pyrazol-3-yl)-2-(4-(4-(trifluoromethyl)phenyl)-3,6-dihydropyridin-1(2G)-yl)quinazolin-4-amine]
activity at 1 µM [1]: 55.8%
pENSA (%) Immunofluor ecense (1 µM) (pENSA): 110%
viability at 1 µM (in vitro): 102%
viability at 1 µM ([2]; Homo sapiens, MCF7, 72 h): 91.9%

Source: patent EP4786466A1, “QUINAZOLINE DERIVATIVE, SALT THEREOF, AND PHARMACEUTICAL COMPOSITION COMPRISING SAME AS ACTIVE INGREDIENT” (Korea Research Institute of Chemical Technology, priority 2023, dated 2025)
